This note sets out measurements from patent US20260234157A1, “COMPOUND AND METHOD FOR TARGETED DEGRADATION OF ANDROGEN RECEPTOR” (Gan & Lee Pharmaceuticals Co., Ltd., priority 2023, published 2026).

Residue numbers refer to the chain shown, from its start. Like-named read-outs stand apart in the source and are kept apart here.

What all share (format): cell-based
For assay [1], the target named is T1, AR protein (Homo sapiens, UniProt P10275).
T1 construct: degradation activity of the compounds disclosed in the present disclosure on AR protein in VCaP cells; host or cells: VCaP
T1 sequence (P10275 1-920): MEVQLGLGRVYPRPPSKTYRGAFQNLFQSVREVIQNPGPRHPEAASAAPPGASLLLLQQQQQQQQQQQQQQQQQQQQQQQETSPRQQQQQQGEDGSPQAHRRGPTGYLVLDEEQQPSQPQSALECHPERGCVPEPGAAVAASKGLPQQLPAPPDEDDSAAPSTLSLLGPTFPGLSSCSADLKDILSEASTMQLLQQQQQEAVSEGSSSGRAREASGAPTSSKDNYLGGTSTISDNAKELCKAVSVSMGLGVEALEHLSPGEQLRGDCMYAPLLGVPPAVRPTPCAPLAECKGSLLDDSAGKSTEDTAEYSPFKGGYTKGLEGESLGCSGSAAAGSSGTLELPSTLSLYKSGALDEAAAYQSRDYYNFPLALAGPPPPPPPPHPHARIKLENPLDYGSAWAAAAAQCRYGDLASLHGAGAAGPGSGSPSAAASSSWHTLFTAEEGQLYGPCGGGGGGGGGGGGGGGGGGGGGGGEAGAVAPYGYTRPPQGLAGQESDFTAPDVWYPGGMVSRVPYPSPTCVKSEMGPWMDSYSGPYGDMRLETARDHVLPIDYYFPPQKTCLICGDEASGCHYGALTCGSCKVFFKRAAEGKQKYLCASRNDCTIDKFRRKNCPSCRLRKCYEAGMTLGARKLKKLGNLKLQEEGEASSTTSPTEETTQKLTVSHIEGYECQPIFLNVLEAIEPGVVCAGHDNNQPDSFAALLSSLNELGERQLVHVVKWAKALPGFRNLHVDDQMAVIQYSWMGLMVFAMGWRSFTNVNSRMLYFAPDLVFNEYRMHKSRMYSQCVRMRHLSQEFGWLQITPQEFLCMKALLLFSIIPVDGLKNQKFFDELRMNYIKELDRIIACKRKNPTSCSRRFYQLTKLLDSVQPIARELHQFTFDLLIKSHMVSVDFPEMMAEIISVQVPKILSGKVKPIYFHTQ
As to the kind of experiment: Degradation of AR protein in VCaP cells (Western blot). The conditions noted are these: 8 hours; for inhibition at 0.01 µM: compound at 10 nM, read-out: Degradation rate of the AR protein in VCaP cells, 10 nM (%); for inhibition at 0.1 µM: compound at 100 nM, read-out: Degradation rate of the AR protein in VCaP cells, 100 nM (%). The method, then:
The degradation activity of the compounds disclosed in the present disclosure on AR protein in VCaP cells (cell source: ATCC)
(§1) Corresponding solvent controls were also set and cultured for 8 hours. After 8 hours of cultivation, the culture medium was removed and the cells were washed with PBS. RIPA lysis buffer containing 1% Protease Inhibitor Cocktail was added, and the total protein extract was obtained by lysis and centrifugation. The protein concentration in the extract was detected by BCA method. Protein electrophoresis was performed using SDS-PAGE, followed by transfer of the protein onto a PVDF (Millipore Sigma catalog No. PSRP010R5) membrane at 100V constant voltage for 60 minutes. The PVDF membrane was then placed in a 1×TBST solution with 5% milk and blocked at room temperature for 1 hour. […] The primary antibody solution was discarded and the PVDF membrane was washed three times with 1×TBST for 5 minutes/time. […] The secondary antibody solution was discarded and the PVDF membrane was washed three times with 1×TBST for 5 minutes/time. Western blot imaging was performed by using a dual color infrared laser imaging system (Licor catalog No. Odyssey CLX). Bands were analyzed in grayscale using Image Studio software. For each sample, GAPDH protein bands were detected as internal reference. The degradation rates of the AR protein for the compounds and the positive control sample were calculated based on grayscale of the protein bands.
On the technique in general: A western blot detects proteins with antibodies after separation by electrophoresis.

A further assay has as its system LNCaP FGC cells. The assay is described as follows: Inhibition of proliferation of LNCaP cells (WST-8). The conditions noted are these: Homo sapiens, LNCaP, 96 h. The method, then:
The cells were cultured in a cell culture incubator with 5% CO2 at 37° C. overnight. […] On the sixth day, 96 well plates were taken out, and 20 μL of WST-8 (Beytime, C0040) reagent was added to each well.
In general terms: Tetrazolium assays rely on reduction of a dye to a coloured formazan, in cell work by metabolically active cells.

Assay [2] has as its target T2, AR protein (Homo sapiens, UniProt P10275, T878A).
T2 construct: degradation activity of the compounds disclosed in the present disclosure on AR protein in LNCaP cells; host or cells: LNCaP FGC
T2 sequence (P10275 1-920 T878A): T1 sequence (P10275 1-920) with T878A
As to the kind of experiment: Degradation of AR protein in LNCaP cells (Western blot). The conditions noted are these: for inhibition at 0.01 µM: read-out: Degradation rates of the AR protein in LNCaP cells, 10 nM (%); for inhibition at 0.1 µM: read-out: Degradation rates of the AR protein in LNCaP cells, 100 nM (%). The method, then:
The degradation activity of the compounds disclosed in the present disclosure on AR protein in LNCaP cells (cell source: ATCC)
as §1

Where [3] appears, read: LNCaP FGC cells, 96 hours, WST-8 absorbance at 450 nm, read-out: IC50 for inhibiting the proliferation of LNCaP cells.
The mark [4] stands for this setting: LNCaP cells, compound 10 nM, 8 hours, Western blot grayscale, GAPDH internal reference.
The mark [5] stands for this setting: LNCaP cells, compound 100 nM, 8 hours, Western blot grayscale, GAPDH internal reference.
The mark [6] stands for this setting: read-out: IC50 for inhibiting the proliferation of LNCaP cells, LNCaP FGC cells, 96 hours, WST-8 absorbance at 450 nm.

In the case of `N#Cc1ccc(O[C@H]2CC[C@H](NC(=O)c3ccc(N4CCC5(CC4)CC(N4CCC6(CC4)COc4c(ccc7c4C(=O)N(C4CCC(=O)NC4=O)C7)C6)C5)nn3)CC2)cc1Cl` (some centres unmarked) [Compound 188], the values for the inhibition at 0.01 µM on AR protein [1] and at AR protein [2] (setting [4]) were 63% and 68%, respectively. Besides, the inhibition at 0.1 µM was 79% at AR protein [1] and 66% at AR protein [2] (setting [5]). For the same molecule, the IC50 in the assay with LNCaP FGC cells (setting [3]) worked out at 3.72 µM.

For the molecule `COc1cc(O[C@H]2C(C)(C)[C@H](NC(=O)c3ccc(N4CCC(F)(CN5CC6(CCc7ccc8c(c7O6)C(=O)N(C6CCC(=O)NC6=O)C8=O)C5)CC4)cc3)C2(C)C)ccc1C#N` (some centres unmarked) [Compound 274], the inhibition at 0.01 µM at AR protein [1] is 4%; at AR protein [2] (setting [4]) it was -3%. The inhibition at 0.1 µM was -13% on AR protein [1] and -5% on AR protein [2] (setting [5]). The IC50 with LNCaP FGC cells (setting [3]) was 84.9 µM.

Regarding `N#Cc1ccc(O[C@H]2CC[C@H](NC(=O)c3ccc(N4CC[C@H](CN5CCC6(CC5)COc5c6ccc6c5CN(C5CCC(=O)NC5=O)C6=O)[C@H](F)C4)nn3)CC2)cc1Cl` (some centres unmarked) [Compound 226], the inhibition at 0.01 µM on AR protein [1] was determined as 74%; at AR protein [2] (setting [4]) it was 52%. Moreover, the inhibition at 0.1 µM at AR protein [1] stood at 83%; on AR protein [2] (setting [5]) it was 34%. Further, the IC50 in the assay with LNCaP FGC cells (setting [3]) worked out at 0.0025 µM.

`COc1cc(OC2CCC(NC(=O)c3cnc(N4CCC(C)(CN5CCC6(CC5)COc5c6ccc6c5CN(C5CCC(=O)NC5=O)C6=O)CC4)nc3)CC2)ccc1C#N` (centres unmarked) [Compound 247]: the figures for the inhibition at 0.01 µM on AR protein [1] and on AR protein [2] (setting [4]) were 53% and -10%, respectively. Moreover, the inhibition at 0.1 µM at AR protein [1] is 70%; at AR protein [2] (setting [5]), 27%. Also, in the assay with LNCaP FGC cells (setting [3]), the IC50 was determined as 0.015 µM.

As to `COc1cc(O[C@H]2C(C)(C)[C@H](NC(=O)c3ccc(N4CCC(CN5CCC6(CC5)COc5c6ccc6c5CN(C5CCC(=O)NC5=O)C6=O)(OC)CC4)cc3)C2(C)C)ccc1C#N` (some centres unmarked) [Compound 217], the inhibition at 0.01 µM is 49% on AR protein [1] and -2% on AR protein [2] (setting [4]). The inhibition at 0.1 µM at AR protein [1] was 83%; at AR protein [2] (setting [5]), 48%. Also, the IC50 in the assay on LNCaP FGC cells (setting [3]) was determined as 0.005 µM.

For the molecule `N#Cc1ccc(O[C@H]2CC[C@H](NC(=O)c3ccc(N4CCC(N5CCC6(CC5)COc5c(ccc7c5C(=O)N(C5CCC(=O)NC5=O)C7)C6)CC4)nn3)CC2)cc1Cl` (some centres unmarked) [Compound 189], the IC50 in the assay on LNCaP FGC cells (setting [6]) came to 26.9 µM. For the same molecule, on AR protein [2] (LNCaP, 8 h), the inhibition at 0.01 µM is 42% and the inhibition at 0.1 µM is 57%.

Take `COc1cc(O[C@H]2CC[C@H](NC(=O)c3ccc(N4CCC(CN5CC6(CCc7cc8c(cc7O6)C(=O)N(C6CCC(=O)NC6=O)C8=O)C5)(OC)CC4)cc3)CC2)ccc1C#N` (some centres unmarked) [Compound 285]: at AR protein [1], the inhibition at 0.01 µM was -5% and the inhibition at 0.1 µM was 66%. In the assay with LNCaP FGC cells (setting [6]), the IC50 came out at 0.84 µM. Also, on AR protein [2] (LNCaP, 8 h), the inhibition at 0.01 µM stood at 40% and the inhibition at 0.1 µM was found to be 54%.

Regarding `N#Cc1ccc(O[C@H]2CC[C@H](NC(=O)c3ccc(N4CCC5(CCC(N6CCC7(CC6)COc6c(ccc8c6C(=O)N(C6CCC(=O)NC6=O)C8)C7)CC5)CC4)nn3)CC2)cc1Cl` (some centres unmarked) [Compound 190], in the assay on LNCaP FGC cells (setting [3]), the IC50 was determined as 5.15 µM. Also, on AR protein [2] (setting [4]), the inhibition at 0.01 µM was determined as 53%. In addition, on AR protein [2] (setting [5]), the inhibition at 0.1 µM worked out at 75%.

As to `COc1cc(O[C@H]2C(C)(C)[C@H](NC(=O)c3ccc(N4CCC(CN5CCC6(CCc7ccc8c(c7O6)CN(C6CCC(=O)NC6=O)C8=O)CC5)CC4)cc3)C2(C)C)ccc1C#N` (some centres unmarked) [Compound 298], the IC50 with LNCaP FGC cells (setting [3]) stood at 12.1 µM. Also, the inhibition at 0.01 µM on AR protein [2] (setting [4]) turned out to be 27%. Moreover, the inhibition at 0.1 µM on AR protein [2] (setting [5]) was found to be 55%.

Regarding `CC1(C)C(=O)N(c2ccc(C#N)c(C(F)(F)F)c2)C(=S)N1c1ccc(C(=O)N2CC3(CC(N4CCC5(CC4)COc4cc6c(cc4C5)C(=O)N(C4CCC(=O)NC4=O)C6=O)C3)C2)c(F)c1` (centres unmarked) [Compound 115], the IC50 in the assay on LNCaP FGC cells (setting [6]) was 10.8 µM.

For the molecule `CC1(C)C(=O)N(c2ccc(C#N)c(C(F)(F)F)c2)C(=S)N1c1ccc(C(=O)N2CC3(CCC(N4CCC5(CCc6cc7c(cc6O5)C(=O)N(C5CCC(=O)NC5=O)C7=O)CC4)CC3)C2)c(F)c1` (centres unmarked) [Compound 117], the IC50 in the assay with LNCaP FGC cells (setting [6]) was 2.57 µM.

In the case of `N#Cc1ccc(O[C@H]2CC[C@H](NC(=O)c3ccc(N4CCC(F)(CN5CCC6(CC5)COc5c6ccc6c5CN(C5CCC(=O)NC5=O)C6=O)CC4)nc3)CC2)cc1Cl` (some centres unmarked) [Compound 216], at AR protein [1], the inhibition at 0.01 µM was found to be 54% and the inhibition at 0.1 µM was determined as 80%. Moreover, in the assay on LNCaP FGC cells (setting [3]), the IC50 came to 0.006 µM.

For the molecule `CC1(C)C(=O)N(c2ccc(C#N)c(C(F)(F)F)c2)C(=S)N1c1ccc(C(=O)N2CC(CN3CCC4(CC3)COc3cc5c(cc3C4)C(=O)N(C3CCC(=O)NC3=O)C5=O)C2)c(F)c1` (centres unmarked) [Compound 128], in the assay on LNCaP FGC cells (setting [3]), the IC50 stood at 4.16 µM.

For `CC1(C)C(=O)N(c2ccc(C#N)c(C(F)(F)F)c2)C(=S)N1c1ccc(C(=O)N2CCC3(CC2)CC(N2CCC4(CC2)COc2cc5c(cc24)C(=O)N(C2CCC(=O)NC2=O)C5=O)C3)c(F)c1` (centres unmarked) [Compound 122], the IC50 in the assay with LNCaP FGC cells (setting [6]) amounted to 13.7 µM.

With `CC1(C)C(=O)N(c2ccc(C#N)c(C(F)(F)F)c2)C(=S)N1c1ccc(C(=O)N2CCC(CN3CC4(CCc5cc6c(cc5O4)C(=O)N(C4CCC(=O)NC4=O)C6=O)C3)CC2)c(F)c1` (centres unmarked) [Compound 119], the IC50 in the assay on LNCaP FGC cells (setting [6]) came to 4.11 µM.
